Laboratory results: patent US20240000075A1, “FUNGICIDAL ARYL AMIDINES” (CORTEVA AGRISCIENCE LLC, priority 2020, published 2024)
Read-outs that look alike come from different tables or passages of the source.

How the values were obtained:
Zymoseptoria tritici = test: Septoria leaf blotch of wheat, whole-plant fungicidal activity (SEPTTR); format: in vivo, Zymoseptoria tritici on wheat plants (variety 'Yuma'); settings: read-out: % Disease Control Rating SEPTTR
Description: Example A: Evaluation of Fungicidal Activity: Septoria Leaf Blotch of Wheat (Zymoseptoria tritici; Bayer Code […]) Technical grades of materials were dissolved in acetone, which were then mixed with nine volumes of water (H2O) containing 110 ppm Triton X-100. The fungicide solutions were applied onto wheat seedlings using an automated booth sprayer to run-off. All sprayed plants were allowed to air dry prior to further handling. All fungicides were evaluated using the aforementioned method for their activity vs. all target diseases, unless stated otherwise. Wheat plants (variety 'Yuma') were grown from seed in a greenhouse in soil-less potting mix until the first leaf was fully emerged, with 7-10 seedlings per pot. These plants were inoculated with an aqueous spore suspension of Zymoseptoria tritici either 3 days prior to fungicide treatment (3 day curative; 3DC) or 1 day after fungicide treatment (1 day protectant; 1DP). After inoculation the plants were kept in 100% relative humidity for three days to permit spores to germinate and infect the leaf. The plants were then transferred to a greenhouse for disease to develop. When disease symptoms were fully expressed on the 1st leaves of untreated plants, infection levels were assessed on a scale of 0 to 100 percent disease severity. Percent disease control was calculated using the ratio of disease severity on treated plants relative to untreated plants.

Rhynchosporium commune = test: Leaf blotch of barley, whole-plant fungicidal activity (RHYNSE); format: in vivo; settings: 24 h, 1DP (1 day protectant), read-out: % Disease Control Rating RHYNSE
Description: Technical grades of materials were dissolved in acetone, which were then mixed with nine volumes of water (H2O) containing 110 ppm Triton X-100. The fungicide solutions were applied onto wheat seedlings using an automated booth sprayer to run-off. All sprayed plants were allowed to air dry prior to further handling. All fungicides were evaluated using the aforementioned method for their activity vs. all target diseases, unless stated otherwise. Example D: Evaluation of Fungicidal Activity: Leaf Blotch of Barley (Rhynchosporium commune; Bayer Code […]) Barley plants (variety 'Harrington') were grown from seed in a greenhouse in soil-less potting mix until the first leaf was fully emerged, with 7-10 seedlings per pot. These plants were inoculated with an aqueous spore suspension of Rhynchosporium commune after fungicide treatments. After inoculation, the plants were kept in a dark dew room with 100% relative humidity for two days to permit spores to germinate and infect the leaf. The plants were then transferred to a greenhouse for disease to develop. Fungicide formulation and application were made as described in Example A. Disease assessment was conducted as described in Example A.

Phakopsora pachyrhizi = test: Asian soybean rust, whole-plant fungicidal activity (PHAKPA); format: in vivo; settings: read-out: % Disease Control Rating PHAKPA
Description: Example C: Evaluation of Fungicidal Activity: Asian Soybean Rust (Phakopsora pachyrhizi; Bayer Code […]) Technical grades of materials were dissolved in acetone, which were then mixed with nine volumes of H2O containing 0.011% Tween-20. The fungicide solutions were applied onto soybean seedlings using an automated booth sprayer to run-off. All sprayed plants were allowed to air dry prior to further handling. Soybean plants (variety 'Williams 82') were grown in soil-less potting mix, with one plant per pot. Ten-day-old seedlings were used for testing. Plants were inoculated as described in Example A. Plants were incubated for 24 h in a dark dew room with 100% relative humidity then transferred to a growth room for disease to develop. Fungicide formulation and application were made as described in Example A. When disease symptoms were fully expressed, disease severity was assessed on the sprayed leaves on a scale of 0 to 100 percent. Percent disease control was calculated using the ratio of disease severity on treated plants relative to untreated plants.

Puccinia triticina = test: Wheat brown rust, whole-plant fungicidal activity (PUCCRT); format: in vivo, Puccinia triticina on wheat plants (variety 'Yuma'); settings: 24 h, 1DP (1 day protectant), read-out: % Disease Control Rating PUCCRT
Description: Technical grades of materials were dissolved in acetone, which were then mixed with nine volumes of water (H2O) containing 110 ppm Triton X-100. The fungicide solutions were applied onto wheat seedlings using an automated booth sprayer to run-off. All sprayed plants were allowed to air dry prior to further handling. All fungicides were evaluated using the aforementioned method for their activity vs. all target diseases, unless stated otherwise.
Example B: Evaluation of Fungicidal Activity: Wheat Brown Rust (Puccinia triticina; Synonym: Puccinia recondita f sp. tritici; Bayer Code PUCCRT)
Wheat plants (variety ‘Yuma’) were grown from seed in a greenhouse in soil-less potting mix until the first leaf was fully emerged, with 7-10 seedlings per pot. These plants were inoculated with an aqueous spore suspension of Puccinia triticina after fungicide treatments. After inoculation, the plants were kept in a dark dew room with 100% relative humidity overnight to permit spores to germinate and infect the leaf. The plants were then transferred to a greenhouse for disease to develop. Fungicide formulation, application and disease assessment followed the procedures as described in Example A.

Row | Compound | pest or weed control at 200 ppm (Zymoseptoria tritici; 24 h, 1DP (1 day protectant)) | pest or weed control at 200 ppm (Zymoseptoria tritici; 72 h, 3DC (3 day curative)) | pest or weed control at 200 ppm (Rhynchosporium commune) | pest or weed control at 200 ppm (Phakopsora pachyrhizi; 24 h, 1DP (1 day protectant)) | pest or weed control at 200 ppm (Phakopsora pachyrhizi; 72 h, 3DC (3 day curative)) | pest or weed control at 200 ppm (Puccinia triticina)
1 | CCN(C)/C=N/c1cc(C)c(C(=O)Cc2ccc3c(c2)CCC3)cc1C [Compound 71] | 20 to 50% | < 20% | > 85% | > 85% | > 85% | > 85%
2 | Cc1cc(C(=O)CC2CCCCC2)c(C)cc1/N=C(\S)N(C)C [Compound 52] | 20 to 50% | < 20% | < 20% | > 85% | 50 to 85% | > 85%
3 | Cc1cc(C(=O)CC2CCCCC2)c(C)cc1/N=C(\S)N1CCCCC1 [Compound 50] | > 85% | 20 to 50% | < 20% | > 85% | > 85% | > 85%
4 | Cc1cc(C(=O)CC2CCCCC2)c(C)cc1/N=C(\S)N(C)C1CC1 [Compound 54] | > 85% | < 20% | < 20% | > 85% | 50 to 85% | > 85%
5 | CCN(C)/C=N/c1cc(OC)c(C(=O)CC2CCCC2)cc1C [Compound 35] | 50 to 85% | < 20% | > 85% | > 85% | > 85% | > 85%
6 | Cc1cc(C(=O)CC2CCCCC2)c(C)cc1/N=C(\S)N(C)c1ccccc1 [Compound 51] | 20 to 50% | < 20% | < 20% | < 20% | < 20% | < 20%
7 | CCN(C)/C=N/c1cc(C)c(C(=O)Cc2ccc(OC(F)F)cc2)cc1C [Compound 85] | > 85% | 20 to 50% | > 85% | > 85% | > 85% | > 85%
8 | CCN(C)/C=N/c1cc(C)c(C(=O)Cc2cccc(C(=O)OC)c2)cc1C [Compound 24] | < 20% | < 20% | < 20% | < 20% | < 20% | > 85%
9 | CCN(/C=N/c1cc(C)c(C(=O)Cc2c(F)cc(F)cc2F)cc1C)CC [Compound 78] | < 20% | < 20% | < 20% | > 85% | > 85% | > 85%
10 | Cc1cc(C(=O)Cc2c(F)cc(F)cc2F)c(C)cc1/N=C1\CCCCN1C [Compound 88] | < 20% | < 20% | < 20% | 50 to 85% | > 85% | 50 to 85%
11 | CCN(C)/C=N/c1cc(C)c(C(=O)C2CCCC2)cc1C [Compound 17] | 50 to 85% | < 20% | > 85% | > 85% | > 85% | > 85%
12 | Cc1cc(C(=O)Cc2c(F)cc(F)cc2F)c(C)cc1/N=C/N(C)C(C)C [Compound 79] | < 20% | < 20% | 50 to 85% | > 85% |  | > 85%
13 | CCN(C)/C=N/c1cc(C)c(C(=O)Cc2cccc(C(=O)OC)c2F)cc1C [Compound 31] | > 85% | < 20% | 50 to 85% | < 20% | < 20% | > 85%
14 | CCN(C)/C=N/c1cc(C)c(C(=O)CCC(C)C)cc1C [Compound 22] | < 20% | < 20% | > 85% | > 85% | > 85% | > 85%
15 | CCN(C)/C=N/c1cc(C)c(C(=O)Cc2ccc(C(C)(C)C)cc2)cc1C [Compound 67] | > 85% | < 20% | > 85% | > 85% | > 85% | > 85%
16 | CCN(C)/C=N/c1cc(C)c(C(=O)Cc2ccc(SC(F)(F)F)cc2)cc1C [Compound 65] | > 85% | 20 to 50% | > 85% | > 85% | > 85% | > 85%
17 | CCN(C)/C=N/c1cc(C)c(C(=O)CCC(F)(F)C(F)(F)F)cc1C [Compound 29] | 50 to 85% | 50 to 85% | > 85% | > 85% | > 85% | > 85%
18 | CCN(C)/C=N/c1cc(C)c(C(=O)CC(C)(C)C)cc1C [Compound 21] | 50 to 85% | < 20% | > 85% | > 85% | > 85% | > 85%
19 | CCN(C)/C=N/c1ccc(C(=O)Cc2ccccc2)c(C)c1C [Compound 16] | < 20% | < 20% | < 20% | 50 to 85% | > 85% | < 20%
20 | Cc1cc(C(=O)CC2CCCC2)c(C)cc1/N=C/N(C)C [Compound 73, (E)-N′-(4-(2-cyclopentylacetyl)-2,5-dimethylphenyl)-N,N-dimethylformimidamide] | < 20% | < 20% | < 20% | > 85% | > 85% | > 85%
21 | Cc1cc(C(=O)CC2CCCCC2)c(C)cc1/N=C(\S)N(C)C1CCCCC1 [Compound 48] | < 20% | < 20% | < 20% | < 20% | < 20% | < 20%
22 | Cc1cc(C(=O)CC2CCCCC2)c(C)cc1/N=C/N(C)C1CC1 [Compound 60] | < 20% | < 20% | < 20% | < 20% | < 20% | > 85%
